In patent US20200085776A1, “Methods of Reducing C-Reactive Protein and/or Treating Cardiovascular Disease” (CARDAX, INC., priority 2018, published 2020):

Test system: C-reactive protein (CRP)
Experiment: CRP (hs-CRP) in blood, CHASE clinical study
Type: in vivo, human
Conditions: Group Z 48 mg BID
From the text: This is a two-part study comprising Part I and Part II. Following screening, Part I consists of a randomized, double-blind, placebo controlled dosing period of up to 12 weeks. The study shall be conducted at one or more study sites in Hawaii. Approximately 360 subjects qualified after completion of screening procedures shall be randomized in a 1:1:1 ratio to one of three treatment groups, per Table 1.
The Part I 12-week double-blind dosing period commences with V2, including randomization and first dose of study product, and continues with study visits at Week 1-2 (V3), Week 4 (V4), Week 8 (V5), and Week 12 (V6). V6 procedures will conclude Part I.
Blood shall be obtained at each visit for CRP. The screening specimen shall be processed at the local lab and reported to the study staff for eligibility determination; CRP samples at V7 and V8 may also be processed locally and reported directly to study staff. Samples for CRP from V2 through V6 may be batched, processed, and reported as specified in the Laboratory Manual.
At each these visits, blood was obtained for measurement of CRP, among other parameters. Table 7A provides a summary of the CRP measurements (mg/L) at each visit and Table 7B provides a summary of the differences of CRP levels between V2 and V6.

[1] = V1 screening, subjects with baseline level greater than 2.0
[2] = V2 baseline pre-dose, all subjects
[3] = V2 baseline pre-dose, subjects not taking a hypertension agent
[4] = V2 baseline pre-dose, subjects not taking any cardiac therapeutic agent
[5] = V2 baseline pre-dose, subjects not taking statins
[6] = V2 baseline pre-dose, subjects taking an anti-diabetic agent
[7] = V2 baseline pre-dose, subjects with CAD
[8] = V2 baseline pre-dose, subjects with DM2, hypertension and hyperlipidemia but not CAD
[9] = V2 baseline pre-dose, subjects with Diabetes Mellitus Type II
[10] = V2 baseline pre-dose, subjects with baseline level greater than 2.0
[11] = V2 baseline pre-dose, subjects with hyperlipidemia
[12] = V3 Week 1-2, subjects with baseline level greater than 2.0
[13] = V4 Week 4, subjects with baseline level greater than 2.0
[14] = V5 Week 8, subjects with baseline level greater than 2.0
[15] = V6 Week 12, subjects not taking a hypertension agent
[16] = V6 Week 12, subjects not taking any cardiac therapeutic agent
[17] = V6 Week 12, subjects not taking statins
[18] = V6 Week 12, subjects taking an anti-diabetic agent

CC1=C(/C=C/C(C)=C/C=C/C(C)=C/C=C/C=C(C)/C=C/C=C(C)/C=C/C2=C(C)C(=O)C(O)CC2(C)C)C(C)(C)CC(O)C1=O (stereo not drawn) [Astaxanthin, astaxanthin]
CRP Max (V1 screening, all subjects): 14.17 mg/L
CRP Mean (SD) (V1 screening, all subjects): 5.12 (3.39) mg/L
CRP Median (V1 screening, all subjects): 4.20 mg/L
CRP Min (V1 screening, all subjects): 2.03 mg/L
CRP Max [1]: 14.17 mg/L
CRP Mean (SD) [1]: 5.65 (3.56) mg/L
CRP Median [1]: 4.94 mg/L
CRP Min [1]: 2.03 mg/L
CRP Max [2]: 8.51 mg/L
CRP Mean (SD) [2]: 4.28 (2.32) mg/L
CRP Median [2]: 4.68 mg/L
CRP Min [2]: 1.27 mg/L
CRP Max [3]: 6.30 mg/L
CRP Mean (SD) [3]: 4.52 (1.86) mg/L
CRP Median [3]: 4.68 mg/L
CRP Min [3]: 2.59 mg/L
CRP Max [4]: 8.04 mg/L
CRP Mean (SD) [4]: 4.55 (2.02) mg/L
CRP Median [4]: 4.68 mg/L
CRP Min [4]: 1.81 mg/L
CRP Max [5]: 8.51 mg/L
CRP Mean (SD) [5]: 4.97 (2.51) mg/L
CRP Median [5]: 4.83 mg/L
CRP Min [5]: 1.83 mg/L
CRP Max [6]: 8.51 mg/L
CRP Mean (SD) [6]: 4.48 (2.24) mg/L
CRP Median [6]: 4.98 mg/L
CRP Min [6]: 1.27 mg/L
CRP Max [7]: 6.68 mg/L
CRP Mean (SD) [7]: 3.49 (2.23) mg/L
CRP Median [7]: 3.12 mg/L
CRP Min [7]: 1.27 mg/L
CRP Max [8]: 8.51 mg/L
CRP Mean (SD) [8]: 5.26 (2.32) mg/L
CRP Median [8]: 5.04 mg/L
CRP Min [8]: 2.59 mg/L
CRP Max [9]: 8.51 mg/L
CRP Mean (SD) [9]: 4.78 (2.37) mg/L
CRP Median [9]: 5.01 mg/L
CRP Min [9]: 1.27 mg/L
CRP Max [10]: 8.51 mg/L
CRP Mean (SD) [10]: 5.25 (1.89) mg/L
CRP Median [10]: 5.17 mg/L
CRP Min [10]: 2.29 mg/L
CRP Max [11]: 8.51 mg/L
CRP Mean (SD) [11]: 3.78 (2.28) mg/L
CRP Median [11]: 3.12 mg/L
CRP Min [11]: 1.27 mg/L
CRP Max (V3 Week 1-2, all subjects): 13.08 mg/L
CRP Mean (SD) (V3 Week 1-2, all subjects): 4.86 (3.09) mg/L
CRP Median (V3 Week 1-2, all subjects): 4.52 mg/L
CRP Min (V3 Week 1-2, all subjects): 1.77 mg/L
CRP Max [12]: 13.08 mg/L
CRP Mean (SD) [12]: 5.62 (3.21) mg/L
CRP Median [12]: 4.88 mg/L
CRP Min [12]: 2.27 mg/L
CRP Max (V4 Week 4, all subjects): 7.81 mg/L
CRP Mean (SD) (V4 Week 4, all subjects): 3.42 (1.84) mg/L
CRP Median (V4 Week 4, all subjects): 3.04 mg/L
CRP Min (V4 Week 4, all subjects): 0.90 mg/L
CRP Max [13]: 7.81 mg/L
CRP Mean (SD) [13]: 3.94 (1.86) mg/L
CRP Median [13]: 3.27 mg/L
CRP Min [13]: 0.90 mg/L
CRP Max (V5 Week 8, all subjects): 9.20 mg/L
CRP Mean (SD) (V5 Week 8, all subjects): 3.49 (2.06) mg/L
CRP Median (V5 Week 8, all subjects): 3.04 mg/L
CRP Min (V5 Week 8, all subjects): 0.91 mg/L
CRP Max [14]: 9.20 mg/L
CRP Mean (SD) [14]: 4.09 (2.07) mg/L
CRP Median [14]: 4.17 mg/L
CRP Min [14]: 1.15 mg/L
CRP Max (V6 Week 12, all subjects): 8.84 mg/L
CRP Mean (SD) (V6 Week 12, all subjects): 3.41 (2.24) mg/L
CRP Median (V6 Week 12, all subjects): 2.53 mg/L
CRP Min (V6 Week 12, all subjects): 0.61 mg/L
CRP Max [15]: 4.30 mg/L
CRP Mean (SD) [15]: 2.94 (1.20) mg/L
CRP Median [15]: 2.48 mg/L
CRP Min [15]: 2.04 mg/L
CRP Max [16]: 8.84 mg/L
CRP Mean (SD) [16]: 3.13 (2.14) mg/L
CRP Median [16]: 2.53 mg/L
CRP Min [16]: 0.61 mg/L
CRP Max [17]: 8.84 mg/L
CRP Mean (SD) [17]: 4.16 (2.57) mg/L
CRP Median [17]: 3.24 mg/L
CRP Min [17]: 1.88 mg/L
CRP Max [18]: 7.87 mg/L
CRP Mean (SD) [18]: 3.31 (2.28) mg/L
CRP Median [18]: 2.53 mg/L
CRP Min [18]: 0.61 mg/L
CRP Max (V6 Week 12, subjects with CAD): 2.31 mg/L
CRP Mean (SD) (V6 Week 12, subjects with CAD): 1.57 (0.72) mg/L
CRP Median (V6 Week 12, subjects with CAD): 1.88 mg/L
CRP Min (V6 Week 12, subjects with CAD): 0.61 mg/L
